From PubChem BioAssay AID1963854 (Molecular Pharmacology Branch, DTP, NCI, 2024)

Tested on: 186277-243-T-J2-PDC complex spheroid viability
Test: Anticancer human tumor 186277-243-T-J2-PDC patient-derived colon adenocarcinoma cell line growth inhibition [POLQ]
Settings: for IC50: curve of first compound; for viability, T/C: stronger effect = lower value
Procedure, shortened: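 Patient-derived tumour cells were co-cultured with HUVEC and mesenchymal stem cells as multicellular spheroids at 37 °C. They were treated with POLQ inhibitors (novobiocin, ART-558, RP6685) alone or combined with other agents. Top concentrations were at or near clinical Cmax (otherwise 10 microM; SN-38 at 1 microM), decreasing in half-log steps.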

[1] = second compound 0.0316 µM, first compound 0.0316 µM
[2] = second compound 0.0316 µM, first compound 0.1 µM
[3] = second compound 0.0316 µM, first compound 0.316 µM
[4] = second compound 0.0316 µM, first compound 1 µM
[5] = second compound 0.0316 µM, first compound 3.16 µM
[6] = second compound 0.0316 µM, first compound 10 µM
[7] = second compound 0.1 µM, first compound 0.0316 µM
[8] = second compound 0.1 µM, first compound 0.1 µM
[9] = second compound 0.1 µM, first compound 0.316 µM
[10] = second compound 0.1 µM, first compound 1 µM
[11] = second compound 0.1 µM, first compound 3.16 µM
[12] = second compound 0.1 µM, first compound 10 µM
[13] = second compound 0.316 µM, first compound 0.0316 µM
[14] = second compound 0.316 µM, first compound 0.1 µM
[15] = second compound 0.316 µM, first compound 0.316 µM
[16] = second compound 0.316 µM, first compound 1 µM
[17] = second compound 0.316 µM, first compound 3.16 µM
[18] = second compound 0.316 µM, first compound 10 µM
[19] = second compound 1 µM, first compound 0.0316 µM
[20] = second compound 1 µM, first compound 0.1 µM
[21] = second compound 1 µM, first compound 0.316 µM
[22] = second compound 1 µM, first compound 1 µM
[23] = second compound 1 µM, first compound 3.16 µM
[24] = second compound 1 µM, first compound 10 µM
[25] = second compound 3.16 µM, first compound 0.0316 µM
[26] = second compound 3.16 µM, first compound 0.1 µM
[27] = second compound 3.16 µM, first compound 0.316 µM
[28] = second compound 3.16 µM, first compound 1 µM
[29] = second compound 3.16 µM, first compound 3.16 µM
[30] = second compound 3.16 µM, first compound 10 µM
[31] = second compound 10 µM, first compound 0.0316 µM
[32] = second compound 10 µM, first compound 0.1 µM
[33] = second compound 10 µM, first compound 0.316 µM
[34] = second compound 10 µM, first compound 1 µM
[35] = second compound 10 µM, first compound 3.16 µM
[36] = second compound 10 µM, first compound 10 µM
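Note: spheroids exposed to compounds for seven days.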
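Throughout, for viability, T/C: 100% = DMSO vehicle control viability.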

SMILES: CCc1cc2c(N3CCc4c(cc(Cn5ccnc5)cc4-c4cn(C)nc4C(F)(F)F)C3=O)cc(C)nc2c(OC)n1 + Nc1ccc(C#CCN(C(=O)Cc2ncc(C(F)(F)F)cc2C(F)(F)F)c2ccc(F)cc2)nn1
- IC50 (second compound 0.0316 µM): > 10 µM
- IC50 (second compound 0.1 µM): > 10 µM
- IC50 (second compound 0.316 µM): > 10 µM
- IC50 (second compound 1 µM): > 10 µM
- IC50 (second compound 3.16 µM): > 10 µM
- IC50 (second compound 10 µM): > 10 µM
- viability, T/C [1]: 97%
- viability, T/C [2]: 104%
- viability, T/C [3]: 96%
- viability, T/C [4]: 117%
- viability, T/C [5]: 119%
- viability, T/C [6]: 95.8%
- viability, T/C [7]: 95.3%
- viability, T/C [8]: 89.4%
- viability, T/C [9]: 96.9%
- viability, T/C [10]: 108%
- viability, T/C [11]: 124%
- viability, T/C [12]: 97.2%
- viability, T/C [13]: 107%
- viability, T/C [14]: 89.2%
- viability, T/C [15]: 96.6%
- viability, T/C [16]: 101%
- viability, T/C [17]: 89.7%
- viability, T/C [18]: 86%
- viability, T/C [19]: 95.1%
- viability, T/C [20]: 106%
- viability, T/C [21]: 101%
- viability, T/C [22]: 98.7%
- viability, T/C [23]: 114%
- viability, T/C [24]: 90.6%
- viability, T/C [25]: 104%
- viability, T/C [26]: 88.4%
- viability, T/C [27]: 91.8%
- viability, T/C [28]: 87.6%
- viability, T/C [29]: 109%
- viability, T/C [30]: 87.3%
- viability, T/C [31]: 102%
- viability, T/C [32]: 95.5%
- viability, T/C [33]: 94.1%
- viability, T/C [34]: 106%
- viability, T/C [35]: 95.6%
- viability, T/C [36]: 76.2%

SMILES: O=c1[nH]cc(F)c(=O)[nH]1 + Cc1cccc(N(C)C(=O)C2C(O)CCN2c2nc(C)cc(C(F)(F)F)c2C#N)c1
- IC50 (second compound 0.0316 µM): 9.4 µM
- IC50 (second compound 0.1 µM): > 10 µM
- IC50 (second compound 0.316 µM): 9.14 µM
- IC50 (second compound 1 µM): 9.77 µM
- IC50 (second compound 3.16 µM): > 10 µM
- IC50 (second compound 10 µM): 8.83 µM
- viability, T/C [1]: 103%
- viability, T/C [2]: 99.5%
- viability, T/C [3]: 95.4%
- viability, T/C [4]: 112%
- viability, T/C [5]: 75.5%
- viability, T/C [6]: 48.5%
- viability, T/C [7]: 105%
- viability, T/C [8]: 99.9%
- viability, T/C [9]: 98.9%
- viability, T/C [10]: 98.3%
- viability, T/C [11]: 73.5%
- viability, T/C [12]: 52.2%
- viability, T/C [13]: 87.2%
- viability, T/C [14]: 91.6%
- viability, T/C [15]: 94.4%
- viability, T/C [16]: 116%
- viability, T/C [17]: 76.5%
- viability, T/C [18]: 47.8%
- viability, T/C [19]: 102%
- viability, T/C [20]: 102%
- viability, T/C [21]: 104%
- viability, T/C [22]: 103%
- viability, T/C [23]: 79.9%
- viability, T/C [24]: 49.4%
- viability, T/C [25]: 112%
- viability, T/C [26]: 108%
- viability, T/C [27]: 88.5%
- viability, T/C [28]: 99.7%
- viability, T/C [29]: 81.8%
- viability, T/C [30]: 52.1%
- viability, T/C [31]: 105%
- viability, T/C [32]: 110%
- viability, T/C [33]: 100%
- viability, T/C [34]: 111%
- viability, T/C [35]: 77.6%
- viability, T/C [36]: 46.7%

SMILES: O=C(c1cc(Cc2n[nH]c(=O)c3ccccc23)ccc1F)N1CCN(C(=O)C2CC2)CC1 + Nc1ccc(C#CCN(C(=O)Cc2ncc(C(F)(F)F)cc2C(F)(F)F)c2ccc(F)cc2)nn1
- IC50 (second compound 0.0316 µM): > 10 µM
- IC50 (second compound 0.1 µM): > 10 µM
- IC50 (second compound 0.316 µM): > 10 µM
- IC50 (second compound 1 µM): > 10 µM
- IC50 (second compound 3.16 µM): > 10 µM
- IC50 (second compound 10 µM): > 10 µM
- viability, T/C [1]: 105%
- viability, T/C [2]: 89.9%
- viability, T/C [3]: 106%
- viability, T/C [4]: 92.3%
- viability, T/C [5]: 107%
- viability, T/C [6]: 121%
- viability, T/C [7]: 97.5%
- viability, T/C [8]: 91.6%
- viability, T/C [9]: 111%
- viability, T/C [10]: 101%
- viability, T/C [11]: 104%
- viability, T/C [12]: 117%
- viability, T/C [13]: 100%
- viability, T/C [14]: 96.7%
- viability, T/C [15]: 98.2%
- viability, T/C [16]: 93.7%
- viability, T/C [17]: 102%
- viability, T/C [18]: 120%
- viability, T/C [19]: 96.1%
- viability, T/C [20]: 101%
- viability, T/C [21]: 98.7%
- viability, T/C [22]: 105%
- viability, T/C [23]: 115%
- viability, T/C [24]: 108%
- viability, T/C [25]: 95%
- viability, T/C [26]: 107%
- viability, T/C [27]: 110%
- viability, T/C [28]: 95.2%
- viability, T/C [29]: 110%
- viability, T/C [30]: 105%
- viability, T/C [31]: 106%
- viability, T/C [32]: 110%
- viability, T/C [33]: 99.5%
- viability, T/C [34]: 102%
- viability, T/C [35]: 117%
- viability, T/C [36]: 95.1%

SMILES: COc1cccc(OCCCN)c1-c1cc(Nc2cnc(C#N)cn2)n[nH]1 + Nc1ccc(C#CCN(C(=O)Cc2ncc(C(F)(F)F)cc2C(F)(F)F)c2ccc(F)cc2)nn1
- IC50 (second compound 0.0316 µM): < 0.00316 µM
- IC50 (second compound 0.1 µM): < 0.00316 µM
- IC50 (second compound 0.316 µM): < 0.00316 µM
- IC50 (second compound 1 µM): < 0.00316 µM
- IC50 (second compound 3.16 µM): < 0.00316 µM
- IC50 (second compound 10 µM): < 0.00316 µM
- viability, T/C (second compound 0.0316 µM, first compound 0.00316 µM): 47%
- viability, T/C (second compound 0.0316 µM, first compound 0.01 µM): 13.1%
- viability, T/C [1]: 10.3%
- viability, T/C [2]: 9.69%
- viability, T/C [3]: 9.94%
- viability, T/C [4]: 10.9%
- viability, T/C (second compound 0.1 µM, first compound 0.00316 µM): 38.6%
- viability, T/C (second compound 0.1 µM, first compound 0.01 µM): 13.4%
- viability, T/C [7]: 9.59%
- viability, T/C [8]: 9.13%
- viability, T/C [9]: 8.61%
- viability, T/C [10]: 9.39%
- viability, T/C (second compound 0.316 µM, first compound 0.00316 µM): 37.4%
- viability, T/C (second compound 0.316 µM, first compound 0.01 µM): 13.8%
- viability, T/C [13]: 9.62%
- viability, T/C [14]: 8.58%
- viability, T/C [15]: 10.1%
- viability, T/C [16]: 9.81%
- viability, T/C (second compound 1 µM, first compound 0.00316 µM): 37.2%
- viability, T/C (second compound 1 µM, first compound 0.01 µM): 11.3%
- viability, T/C [19]: 9.81%
- viability, T/C [20]: 8.9%
- viability, T/C [21]: 10.1%
- viability, T/C [22]: 9.12%
- viability, T/C (second compound 3.16 µM, first compound 0.00316 µM): 27.5%
- viability, T/C (second compound 3.16 µM, first compound 0.01 µM): 10.3%
- viability, T/C [25]: 9.29%
- viability, T/C [26]: 8.63%
- viability, T/C [27]: 10.8%
- viability, T/C [28]: 10.4%
- viability, T/C (second compound 10 µM, first compound 0.00316 µM): 17.6%
- viability, T/C (second compound 10 µM, first compound 0.01 µM): 8.38%
- viability, T/C [31]: 9.28%
- viability, T/C [32]: 8.09%
- viability, T/C [33]: 9.97%
- viability, T/C [34]: 9.55%
